Measured values from patent USRE39591E1, “6-O-substituted ketolides having antibacterial activity” (Abbott Laboratories, priority 1996, dated 2007).

System: up to 32 different microorganisms
Assay: in vitro antibacterial activity (MIC), agar dilution on Brain Heart Infusion (BHI) agar with Steers replicator
Format: cell-based
Conditions: unit assumed
Method: Representative compounds of the present invention were assayed in vitro for antibacterial activity as follows: Twelve petri dishes containing successive aqueous dilutions of the test compound mixed with 10 mL of sterilized Brain Heart Infusion (BHI) agar (Difco 0148-01-5) were prepared. Each plate was inoculated with 1:100 (or 1:10 for slow-growing strains, such as Micrococcus and Streptococcus) dilutions of up to 32 different microorganisms, using a Steers replicator block. The inoculated plates were incubated at 35°-37° C. for 20 to 24 hours. In addition, a control plate, using BHI agar containing no test compound, was prepared and incubated at the beginning and end of each test.
An additional plate containing a compound having known susceptibility patterns for the organisms being tested and belonging to the same antibiotic class as the test compound was also prepared and incubated as a further control, as well as to provide test-to-test comparability. Erythromycin A was used for this purpose.
After incubation, each plate was visually inspected. The minimum inhibitory concentration (MIC) was defined as the lowest concentration of drug yielding no growth, a slight haze, or sparsely isolated colonies on the inoculum spot as compared to the growth control.

[1] = Candida albicans CCH 442 (code TT)
[2] = Enterococcus faecism ATCC 8043 (code II)
[3] = Escherichia coli DC-2 (code SS)
[4] = Escherichia coli JUHL (code QQ)
[5] = Haemophilis influenzae DILL AMP R (code WW)
[6] = Micrococcus luteus ATCC 4698 (code PP)
[7] = Micrococcus luteus ATCC 9341 (code OO)
[8] = Mycobacterium smegmatis ATCC 114 (code UU)
[9] = Nocardia Asteroides ATCC9970 (code VV)
[10] = Staphylococcus aureus 1775 (code GG)
[11] = Staphylococcus aureus A5177 (code BB)
[12] = Staphylococcus aureus A-5278 (code CC)
[13] = Staphylococcus aureus ATCC 6538P (code AA)
[14] = Staphylococcus aureus CMX 553 (code FF)
[15] = Staphylococcus aureus CMX 642A (code DD)
[16] = Staphylococcus aureus NCTC10649M (code EE)
[17] = Staphylococcus epidermidis 3519 (code HH)
[18] = Streptococcus Pneumonia 5649 (code ZZA)
[19] = Streptococcus Pneumonia 5979 (code ZZ)
[20] = Streptococcus Pneumonia ATCC6303 (code XX)
[21] = Streptococcus Pneumonia GYR 1171 (code YY)
[22] = Streptococcus agalactiae CMX 508 (code KK)
[23] = Streptococcus bovis A-5169 (code JJ)
[24] = Streptococcus pyogenes 930 (code MM)
[25] = Streptococcus pyogenes EES61 (code LL)
[26] = Streptococcus pyogenes PIU 2548 (code NN)

## CC[C@H]1OC(=O)[C@H](C)C(=O)[C@H](C)[C@@H](O[C@@H]2O[C@H](C)C[C@H](N(C)C)[C@H]2O)[C@@](C)(OCC=Cc2cnc3ccccc3c2)C[C@@H](C)C(=O)[C@H](C)[C@H]2NC(=O)O[C@@]21C [Example 104, Compound of Formula (IX): L is CO, T is NH, R is —CH2CH═CH-(3-quinolyl)]
[1]
  MIC: > 100 mg/L
[2]
  MIC: 0.05 mg/L
[3]
  MIC: 50 mg/L
[4]
  MIC: 50 mg/L
Escherichia coli SS (code RR)
  MIC: 0.39 mg/L
[5]
  MIC: 2 mg/L
[6]
  MIC: 0.05 mg/L
[7]
  MIC: ≤ 0.005 mg/L
[8]
  MIC: 0.39 mg/L
[9]
  MIC: 0.01 mg/L
[10]
  MIC: > 100 mg/L
[11]
  MIC: 0.05 mg/L
[12]
  MIC: > 100 mg/L
[13]
  MIC: 0.05 mg/L
[14]
  MIC: 0.1 mg/L
[15]
  MIC: 0.05 mg/L
[16]
  MIC: 0.1 mg/L
[17]
  MIC: 0.05 mg/L
[18]
  MIC: 0.25 mg/L
[19]
  MIC: 16 mg/L
[20]
  MIC: 0.03 mg/L
[21]
  MIC: 0.03 mg/L
[22]
  MIC: 0.01 mg/L
[23]
  MIC: 0.01 mg/L
[24]
  MIC: 1.56 mg/L
[25]
  MIC: ≤ 0.005 mg/L
[26]
  MIC: 0.1 mg/L

## CCC1OC(=O)C(C)C(=O)C(C)C(OC2OC(C)CC(N(C)C)C2O)C(C)(OCC=Cc2cnc3ccccc3c2)CC(C)C(=O)C(C)C2N(CCN(C)C)C(=O)OC12C (centres unmarked) [Example 182, Compound of Formula (IX): L is CO, T is N (CH2CH2N(CH3)2), R is —CH2CH═CH(3-quinolyl)]
[1]
  MIC: > 100 mg/L
[2]
  MIC: 0.1 mg/L
[3]
  MIC: > 100 mg/L
[4]
  MIC: > 100 mg/L
Escherichia coli SS (code RR)
  MIC: 0.39 mg/L
[5]
  MIC: 8 mg/L
[6]
  MIC: 0.39 mg/L
[7]
  MIC: 0.02 mg/L
[8]
  MIC: 0.39 mg/L
[9]
  MIC: 0.2 mg/L
[10]
  MIC: > 100 mg/L
[11]
  MIC: 0.2 mg/L
[12]
  MIC: > 100 mg/L
[13]
  MIC: 0.39 mg/L
[14]
  MIC: 0.39 mg/L
[15]
  MIC: 0.39 mg/L
[16]
  MIC: 0.39 mg/L
[17]
  MIC: 0.78 mg/L
[18]
  MIC: 2 mg/L
[19]
  MIC: > 128 mg/L
[20]
  MIC: 0.125 mg/L
[21]
  MIC: 0.25 mg/L
[22]
  MIC: 0.05 mg/L
[23]
  MIC: 0.01 mg/L
[24]
  MIC: 100 mg/L
[25]
  MIC: 0.01 mg/L
[26]
  MIC: 0.39 mg/L

## CC[C@H]1OC(=O)[C@H](C)C(=O)[C@H](C)[C@@H](O[C@@H]2O[C@H](C)C[C@H](N(C)C)[C@H]2O)[C@@](C)(OCC=NOCc2ccc3ccccc3c2)C[C@@H](C)C(=O)[C@H](C)[C@H]2NC(=O)O[C@@]21C [Example 236, Compound of Formula (IX): L is CO, T is NH, R is —CH2CH═NOCH2(2-naphthyl)]
Organism code AA
  MIC: 0.2 mg/L
Organism code BB
  MIC: 0.2 mg/L
Organism code CC
  MIC: > 100 mg/L
Organism code DD
  MIC: 0.2 mg/L
Organism code EE
  MIC: 0.2 mg/L
Organism code FF
  MIC: 0.2 mg/L
Organism code GG
  MIC: > 100 mg/L
Organism code HH
  MIC: 0.2 mg/L
Organism code II
  MIC: 0.05 mg/L
Organism code JJ
  MIC: 0.05 mg/L
Organism code KK
  MIC: 0.05 mg/L
Organism code LL
  MIC: 0.01 mg/L
Organism code MM
  MIC: 25 mg/L
Organism code NN
  MIC: 0.2 mg/L
Organism code OO
  MIC: 0.05 mg/L
Organism code PP
  MIC: 0.1 mg/L
Organism code QQ
  MIC: 50 mg/L
Organism code RR
  MIC: 0.39 mg/L
Organism code SS
  MIC: > 100 mg/L
Organism code TT
  MIC: > 100 mg/L
Organism code UU
  MIC: 0.39 mg/L
Organism code VV
  MIC: 0.2 mg/L
Organism code WW
  MIC: 4 mg/L
Organism code XX
  MIC: 0.03 mg/L
Organism code YY
  MIC: 0.03 mg/L
Organism code ZZ
  MIC: 32 mg/L

## CCC1OC(=O)C(C)C(=O)C(C)C(OC2OC(C)CC(N(C)C)C2O)C(C)(OCC=Cc2ccc(-n3cccc3)cc2)CC(C)C(=O)C(C)C2NC(=O)OC12C (centres unmarked) [Example 282, Compound of Formula (IX): L is CO, T is NH2, R is —CH2CH═CH-(4-pyrrolylphenyl)]
Organism code AA
  MIC: 0.2 mg/L
Organism code BB
  MIC: 0.1 mg/L
Organism code CC
  MIC: 100 mg/L
Organism code DD
  MIC: 0.2 mg/L
Organism code EE
  MIC: 0.2 mg/L
Organism code FF
  MIC: 0.1 mg/L
Organism code GG
  MIC: 100 mg/L
Organism code HH
  MIC: 0.2 mg/L
Organism code II
  MIC: 0.05 mg/L
Organism code JJ
  MIC: 0.01 mg/L
Organism code KK
  MIC: ≤ 0.005 mg/L
Organism code LL
  MIC: ≤ 0.005 mg/L
Organism code MM
  MIC: 25 mg/L
Organism code NN
  MIC: 0.1 mg/L
Organism code OO
  MIC: 0.05 mg/L
Organism code PP
  MIC: 0.2 mg/L
Organism code QQ
  MIC: > 100 mg/L
Organism code RR
  MIC: 0.78 mg/L
Organism code SS
  MIC: > 100 mg/L
Organism code TT
  MIC: > 100 mg/L
Organism code UU
  MIC: 1.56 mg/L
Organism code VV
  MIC: 0.2 mg/L
Organism code WW
  MIC: 8 mg/L
Organism code XX
  MIC: 0.03 mg/L
Organism code YY
  MIC: 0.03 mg/L
Organism code ZZ
  MIC: 36 mg/L
Organism code ZZA
  MIC: 0.25 mg/L
